Measurements: patent publication US20230129258A1, “HETEROTANDEM BICYCLIC PEPTIDE COMPLEXES” (BicycleTx Limited, priority 2019, published 2023)
Several values for one entry are separate records, joined by “and”; a condition that tells them apart may be missing. Identical values can stand only once. Starred links: 1 amine or outer side, 2 acyl side, 3 side chain; linkers in the order of their positions; H or OH if unused. Positions of bridges follow the written chain, without caps; N, C: chain ends. Non-standard residues stand in square brackets, D forms with d. Chains are numbered I, II in the order given. X1 = O=C(CCOCCOCCOCCN(CCOCCOCCOCCn1cc(CCC(=O)[*:2])nn1)CCOCCOCCOCCn1cc(CCC(=O)[*:3])nn1)[*:1]; TATA = O=C(CC[*:1])N1CN(C(=O)CC[*:2])CN(C(=O)CC[*:3])C1; d1Nal = N[C@H](Cc1cccc2ccccc12)C(=O)O; Hyp = O=C(O)[C@@H]1C[C@@H](O)CN1; hArg = N=C(N)NCCCC[C@H](N)C(=O)O; tBuAla = CC(C)(C)C[C@H](N)C(=O)O; Nle = CCCC[C@H](N)C(=O)O

Assays:
[1] = test system: CT26 #7 tumor tissue T cells; assay: Flow cytometry of T cells in CT26 #7 tumor tissue 1 h after last Q3D dose; format: in vivo, BALB/c-hCD137 mice; conditions: 5 mg/kg ip Q3D, 1 h after 6th dose
Protocol: 1 hour after the last vehicle or BCY11863 dose the […] bearing mice were sacrificed and tumors were harvested, processed for single cell suspensions and stained for flow cytometry analysis for total T cells (CD45+CD3+), CD8+ T cells (CD45+CD3+CD8+), CD4+ T cells (CD45+CD3+CD4+) and regulatory T cells (Tregs; CD45+CD3+CD4+Foxp3+).

CT26 #7 tumors = assay: Anti-tumor activity in syngeneic Nectin-4 overexpressing CT26 tumor model (CT26 #7); format: in vivo, BALB/c-hCD137 mice; conditions: 5 mg/kg ip Q3D, 6 doses; from day 7 forward
Protocol: 6-8 weeks old BALB/c-hCD137 female mice were inoculated in the flank with 3×10^5 syngeneic Nectin-4 overexpressing CT26 cells (CT26 #7). When tumors reached around 70 mm^3 size on average, mice were randomized to receive vehicle or 5 mg/kg BCY11863 intraperitoneally every three days (6 doses total). Tumor growth was monitored by caliper measurements until day 14 after treatment initiation.

[2] = test system: Nectin-1, Nectin-2, Nectin-3, Nectin-like-1, Nectin-like-2, Nectin-like-3, Nectin-like-4, Nectin-like-5; assay: Nectin-4 paralogue screening by SPR; format: binding; conditions: biotinylated targets on streptavidin surface
Protocol: Nectin-4 Paralogue screening: Binding of BCY11863 was assessed using SPR against Nectin-1 (2880-N1, R&D Systems), Nectin-2 (2229-N2, R&D Systems), Nectin-3 (3064-N3, R&D Systems), Nectin-like-1 (3678-S4-050, R&D Systems), Nectin-like-2 (3519-S4-050, R&D Systems), Nectin-like-3 (4290-S4-050, R&D Systems), Nectin-like-4 (4164-S4, R&D Systems) and Nectin-like-5 (2530-CD-050, R&D Systems) by labelling them with biotin and immobilizing them on a streptavidin surface.

human Nectin-4 = target: T1, human Nectin-4 (Homo sapiens, UniProt Q96NY8); assay: SPR direct binding to biotinylated Nectin-4 extracellular domain, human
T1 sequence (Q96NY8 32-349 limits assumed): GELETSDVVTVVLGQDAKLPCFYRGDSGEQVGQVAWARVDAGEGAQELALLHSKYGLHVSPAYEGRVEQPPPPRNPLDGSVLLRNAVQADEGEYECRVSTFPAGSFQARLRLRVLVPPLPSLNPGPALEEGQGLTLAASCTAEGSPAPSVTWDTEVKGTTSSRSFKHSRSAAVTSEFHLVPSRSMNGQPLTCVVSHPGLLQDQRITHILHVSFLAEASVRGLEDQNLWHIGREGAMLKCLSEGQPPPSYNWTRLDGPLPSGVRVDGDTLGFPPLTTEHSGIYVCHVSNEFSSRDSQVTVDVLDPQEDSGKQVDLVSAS
Text: The binding of BCY11863 to its primary target Nectin-4 and CD137 was characterized using surface plasmon resonance (SPR).

cyno Nectin-4 = assay: Multicomponent SPR: Nectin-4 binding to complex captured on biotinylated human CD137, cyno Nectin-4; conditions: Sandwich Assay, Nectin-4 ECD, biotinylated human CD137 as capture reagent; read-out: SPR KD NHP
Text: To understand whether the binding of BCY11863 to Nectin-4 was altered in the context of the ternary complex, i.e. when also bound to CD137, a multicomponent SPR binding assay was developed. BCY11863 was first captured to human CD137 immobilized on the SPR chip surface and then Nectin-4 from different species were passed over the chip to determine their affinities to the captured BCY11863 (see FIG. 21C). The affinities to Nectin-4 were generally maintained in the presence of CD137 binding as shown below: […]

human EphA2 = human EphA2 (Homo sapiens, UniProt P29317); assay: SPR (Biacore) binding to immobilized human EphA2
Protocol: Biacore experiments were performed to determine ka (M^−1s^−1), kd (s^−1), KD (nM) values of BCY13272 binding to human EphA2 protein.
EphA2 were biotinylated with EZ-Link™ Sulfo-NHS-LC-Biotin for 1 hour in 4 mM sodium acetate, 100 mM NaCl, pH 5.4 with a 3× molar excess of biotin over protein. The degree of labelling was determined using a Fluorescence Biotin Quantification Kit (Thermo) after dialysis of the reaction mixture into PBS. For analysis of peptide binding, a Biacore T200 instrument was used with a XanTec CMD500D chip. Streptavidin was immobilized on the chip using standard amine-coupling chemistry at 25° C. with HBS-N (10 mM HEPES, 0.15 M NaCl, pH 7.4) as the running buffer. Briefly, the carboxymethyl dextran surface was activated with a 7 min injection of a 1:1 ratio of 0.4 M 1-ethyl-3-(3-dimethylaminopropyl) carbodiimide hydrochloride (EDC)/0.1 M N-hydroxy succinimide (NHS) at a flow rate of 10 μl/min. For capture of streptavidin, the protein was diluted to 0.2 mg/ml in 10 mM sodium acetate (pH 4.5) and captured by injecting 120 μl onto the activated chip surface. Residual activated groups were blocked with a 7 min injection of 1 M ethanolamine (pH 8.5):HBS-N (1:1). Buffer was changed to PBS/0.05% Tween 20 and biotinylated EphA2 was captured to a level of 500-1500 RU using a dilution of protein to 0.2 μM in buffer. […]

human EphA2, sequence (P29317 24-976): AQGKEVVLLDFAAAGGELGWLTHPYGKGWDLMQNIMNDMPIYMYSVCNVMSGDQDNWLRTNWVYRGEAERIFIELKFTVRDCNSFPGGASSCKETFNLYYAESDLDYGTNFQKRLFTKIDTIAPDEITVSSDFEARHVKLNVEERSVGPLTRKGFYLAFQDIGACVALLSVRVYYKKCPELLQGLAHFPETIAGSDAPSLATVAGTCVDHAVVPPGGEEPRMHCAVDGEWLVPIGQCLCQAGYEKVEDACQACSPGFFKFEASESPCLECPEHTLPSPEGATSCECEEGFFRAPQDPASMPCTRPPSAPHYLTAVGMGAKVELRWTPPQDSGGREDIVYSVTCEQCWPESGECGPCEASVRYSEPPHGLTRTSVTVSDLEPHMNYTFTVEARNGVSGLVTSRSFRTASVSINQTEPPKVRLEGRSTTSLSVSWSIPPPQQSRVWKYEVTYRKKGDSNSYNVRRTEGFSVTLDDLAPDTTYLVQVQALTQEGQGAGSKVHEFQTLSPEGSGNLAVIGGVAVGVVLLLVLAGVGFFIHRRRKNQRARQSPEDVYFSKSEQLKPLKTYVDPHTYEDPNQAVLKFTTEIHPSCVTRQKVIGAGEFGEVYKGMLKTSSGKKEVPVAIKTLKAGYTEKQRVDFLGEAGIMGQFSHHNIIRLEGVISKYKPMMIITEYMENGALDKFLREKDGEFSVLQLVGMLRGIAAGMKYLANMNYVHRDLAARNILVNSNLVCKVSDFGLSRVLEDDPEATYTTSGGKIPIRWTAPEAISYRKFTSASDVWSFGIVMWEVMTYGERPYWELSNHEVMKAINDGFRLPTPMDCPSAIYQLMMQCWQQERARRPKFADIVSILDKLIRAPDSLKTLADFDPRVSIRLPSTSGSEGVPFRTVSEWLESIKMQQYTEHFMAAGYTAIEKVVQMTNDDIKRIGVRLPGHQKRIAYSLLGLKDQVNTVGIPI

Compound | CD8+ T cells in tumor ([1]; p<0.0001) | total T cells (CD45+CD3+) in tumor ([1]; p<0.0001) | CD8+ T cell/Treg ratio in tumor ([1]; p<0.05) | tumor growth (CT26 #7 tumors) | binding to Nectin-4 paralogues: concentration up to which no binding was shown [2] | Kd (human Nectin-4; KD, biotinylated ECD captured on streptavidin chip) | Kd (human Nectin-4; SPR KD Human (25° C.), Direct Binding, biotinylated Nectin-4 extracellular domain, 25° C.) | Kd (human Nectin-4; SPR KD Human (37° C.), Direct Binding, biotinylated Nectin-4 extracellular domain, 37° C.) | Kd (cyno Nectin-4) | Kd (human EphA2)
CCCC[C@@H]1NC(=O)[C@H](Cc2ccc(O)cc2)NC(=O)[C@@H]2CCCN2C(=O)[C@H](CC(=O)O)NC(=O)[C@H](C)NC(=O)[C@H](Cc2ccccc2)NC(=O)[C@@H]2CSCCC(=O)N3CN(CN(C3)C(=O)CCSC[C@@H](C(=O)N[C@@H](C)C(N)=O)NC1=O)C(=O)CCSC[C@H](NC(C)=O)C(=O)N[C@@H](CC(C)(C)C)C(=O)N1CCC[C@H]1C(=O)N[C@@H](CCC(=O)O)C(=O)N[C@H](CCCCNC(=O)CCc1cn(CCOCCOCCOCCN(CCOCCOCCOCCC(=O)N[C@H]3CSCCC(=O)N4CN5CN(C4)C(=O)CCSC[C@H](NC(=O)[C@@H](CC(=O)O)NC(=O)[C@H](Cc4cccc6ccccc46)NC(=O)[C@@H]4CCCN4C3=O)C(=O)N[C@@H](CCSC)C(=O)N[C@@H](CCCCNC(=N)N)C(=O)N[C@@H](CC(=O)O)C(=O)N[C@@H](Cc3c[nH]c4ccccc34)C(=O)N[C@@H](CO)C(=O)N[C@@H]([C@@H](C)O)C(=O)N3CCC[C@H]3C(=O)N3C[C@H](O)C[C@H]3C(=O)N[C@@H](Cc3c[nH]c4ccccc34)C(=O)N[C@H](C(N)=O)CSCCC5=O)CCOCCOCCOCCn3cc(CCC(=O)NCCCC[C@H]4NC(=O)[C@H](CCC(=O)O)NC(=O)[C@@H]5CCCN5C(=O)[C@H](CC(C)(C)C)NC(=O)[C@@H](NC(C)=O)CSCCC(=O)N5CN6CN(C5)C(=O)CCSC[C@H](NC(=O)[C@H](Cc5ccc(O)cc5)NC(=O)[C@@H]5CCCN5C4=O)C(=O)N[C@@H](Cc4ccccc4)C(=O)N[C@@H](C)C(=O)N[C@@H](CC(=O)O)C(=O)N4CCC[C@H]4C(=O)N[C@@H](Cc4ccc(O)cc4)C(=O)N[C@@H](CCCC)C(=O)N[C@H](C(=O)N[C@@H](C)C(N)=O)CSCCC6=O)nn3)nn1)C(=O)N1CCC[C@H]1C(=O)N[C@@H](Cc1ccc(O)cc1)C(=O)N2 [BCY11863] | significant increase | significant increase | significant increase | significantly (p<0.0001, Student's t-test) reduced the tumor growth | > 5000 nM | 5 to 27 nM and 4.1 nM | 5 ± 2.1 nM | 5.2 ± 1.1 nM | 28 ± 5 nM | –
I: A[hArg]DC[Hyp]LVNPLCLEP[d1Nal]WTC-NH2 / II: Ac-C[tBuAla]PE[dK]PYCFADPY[Nle]CA-NH2 / III: Ac-C[tBuAla]PE[dK]PYCFADPY[Nle]CA-NH2 (linker I:4-I:11-I:18, II:1-II:8-II:15, III:1-III:8-III:15 via TATA; linker I:N-II:5-III:5 via X1) [BCY13272] | – | – | – | – | – | – | – | – | – | 2 nM
